Data reported in PubChem BioAssay (NCI).
Where “and” joins values, the source holds several entries; their conditions need not be identical. Equal values may be shown once.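 Grown in 96-well plates, cells were treated for 48 hours with each compound at five concentrations. Insufficient inhibition: endpoint recorded as highest concentration tested. GI50: concentration for 50% inhibition of growth. Definition used: TGI = concentration required for complete inhibition of growth.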

Key:
Experiment in all cases: NCI anticancer screen, dose series, 48 h; in the data active = GI50 below about 0.43 µM; inactive = the rest
NCI-H522 lung = test system: NCI-H522 lung
DU-145 prostate = test system: DU-145 prostate
ACHN renal = test system: ACHN renal
BT-549 breast = test system: BT-549 breast
SK-MEL-5 melanoma = test system: SK-MEL-5 melanoma
SK-MEL-28 melanoma = test system: SK-MEL-28 melanoma
OVCAR-5 ovarian = test system: OVCAR-5 ovarian
A498 renal = test system: A498 renal
SNB-75 CNS = test system: SNB-75 CNS
SR leukemia = test system: SR leukemia

Nc1nc(-c2ccccc2)nc2c1[n+]([O-])c1ccccc1[n+]2[O-]
> 100 µM: TGI (NCI-H522 lung) | TGI (DU-145 prostate) | TGI (ACHN renal) | TGI (BT-549 breast) | TGI (SK-MEL-5 melanoma) | TGI (SK-MEL-28 melanoma) | TGI (OVCAR-5 ovarian) | TGI (A498 renal)

C=C1CCC2C(C)(C)CCC[C@]2(C)[C@H]1CO (some centres not stated)
inactive: GI50 (NCI-H522 lung) 67.6 µM | GI50 (ACHN renal) 97.9 µM | GI50 (BT-549 breast) 47.9 µM | GI50 (SK-MEL-5 melanoma) 68.2 µM | GI50 (SK-MEL-28 melanoma) > 100 µM | GI50 (OVCAR-5 ovarian) 93.5 µM
> 100 µM: TGI (NCI-H522 lung) | TGI (ACHN renal) | TGI (BT-549 breast) | TGI (SK-MEL-5 melanoma) | TGI (SK-MEL-28 melanoma) | TGI (OVCAR-5 ovarian)

COc1ccc(/C(C#N)=C/c2ccc(OC)c(OC)c2)cc1
> 100 µM: TGI (NCI-H522 lung) | TGI (DU-145 prostate) | TGI (ACHN renal) | TGI (SK-MEL-5 melanoma) | TGI (SK-MEL-28 melanoma) | TGI (OVCAR-5 ovarian) | TGI (A498 renal) | TGI (SNB-75 CNS)

COc1cc2c3c(n(CCCI)c(=O)c2cc1OC)-c1cc2c(cc1C3=O)OCO2
inactive: GI50 (NCI-H522 lung) 8.32 µM | GI50 (DU-145 prostate) 2.28 µM | GI50 (ACHN renal) 2.14 µM | GI50 (BT-549 breast) 1.82 µM | GI50 (SK-MEL-5 melanoma) 1.81 µM | GI50 (SK-MEL-28 melanoma) 52.1 µM | GI50 (OVCAR-5 ovarian) > 100 µM | GI50 (A498 renal) 6.79 µM | GI50 (SNB-75 CNS) > 100 µM
9.44 µM: TGI (BT-549 breast)
8.34 µM: TGI (ACHN renal)
8.5 µM: TGI (SK-MEL-5 melanoma)
> 100 µM: TGI (NCI-H522 lung) | TGI (DU-145 prostate) | TGI (SK-MEL-28 melanoma) | TGI (OVCAR-5 ovarian) | TGI (A498 renal) | TGI (SNB-75 CNS)

CC1C[C@@H]2C(=O)NC(=O)[C@@H]2c2c1c1ccccc1n2C (some centres not stated)
> 100 µM: TGI (NCI-H522 lung) | TGI (SK-MEL-5 melanoma) | TGI (SK-MEL-28 melanoma) | TGI (A498 renal) | TGI (SNB-75 CNS)

COCCCNC(=O)CC(=O)NCCCOC
> 100 µM: TGI (NCI-H522 lung) | TGI (ACHN renal) | TGI (SK-MEL-5 melanoma) | TGI (SK-MEL-28 melanoma) | TGI (OVCAR-5 ovarian) | TGI (SR leukemia) | TGI (A498 renal)

CCC(=O)c1c(NOC2OC(COC(C)=O)C(OC(C)=O)C(OC(C)=O)C2OC(C)=O)nc(OC)n(C)c1=O (configuration not stated)
> 100 µM: TGI (NCI-H522 lung) | TGI (ACHN renal) | TGI (SK-MEL-5 melanoma) | TGI (SK-MEL-28 melanoma) | TGI (OVCAR-5 ovarian) | TGI (SR leukemia) | TGI (SNB-75 CNS)

O=C(NP(=O)(N1CC1)N1CC1)c1cc(I)ccc1I
> 100 µM: TGI (DU-145 prostate) | TGI (BT-549 breast) | TGI (SK-MEL-5 melanoma) | TGI (SK-MEL-28 melanoma) | TGI (OVCAR-5 ovarian) | TGI (A498 renal)
> 65.1 µM: TGI (ACHN renal)
79.1 µM: TGI (SNB-75 CNS)
> 92.9 µM: TGI (NCI-H522 lung)

COc1cc(OC)c(C2CC=Cc3c(OC)cc(OC)c(OC)c32)cc1OC (configuration not stated)
> 100 µM: TGI (ACHN renal) | TGI (SK-MEL-5 melanoma) | TGI (SK-MEL-28 melanoma) | TGI (OVCAR-5 ovarian) | TGI (SR leukemia) | TGI (A498 renal) | TGI (SNB-75 CNS)

CC(=O)c1ccc(NC(=O)C(=O)Nn2c(=S)[nH]c3ccccc3c2=O)cc1
> 100 µM: TGI (NCI-H522 lung) | TGI (ACHN renal) | TGI (SK-MEL-5 melanoma) | TGI (SK-MEL-28 melanoma) | TGI (OVCAR-5 ovarian) | TGI (SR leukemia) | TGI (A498 renal) | TGI (SNB-75 CNS)

O=[N+]([O-])c1cccc(-c2oc(C=Nc3ccccc3)c([N+](=O)[O-])c2-c2cccc([N+](=O)[O-])c2)c1
> 100 µM: TGI (NCI-H522 lung) | TGI (ACHN renal) | TGI (SK-MEL-5 melanoma) | TGI (SK-MEL-28 melanoma) | TGI (OVCAR-5 ovarian) | TGI (A498 renal) | TGI (SNB-75 CNS)

CCC1CN2CCc3c([nH]c4ccccc34)C2C[C@@H]1CC(=O)N(C)C (some centres not stated)
> 100 µM: TGI (NCI-H522 lung) | TGI (ACHN renal) | TGI (SK-MEL-5 melanoma) | TGI (SK-MEL-28 melanoma) | TGI (OVCAR-5 ovarian) | TGI (SR leukemia) | TGI (A498 renal)
92.6 µM: TGI (SNB-75 CNS)

COc1ccc2c(c1)n([O-])c1ccccc1[n+]2=O
53.4 µM and 32.1 µM: TGI (NCI-H522 lung)
98.5 µM and 39.8 µM: TGI (SK-MEL-5 melanoma)
59.6 µM and 12.2 µM: TGI (SR leukemia)
inactive: GI50 (DU-145 prostate) 29.3 µM and 12.2 µM | GI50 (ACHN renal) 16.3 µM and 5.24 µM | GI50 (SR leukemia) 7.56 µM and 2.42 µM | GI50 (A498 renal) 82.6 µM and 18.3 µM
> 100 µM and 60.4 µM: TGI (A498 renal)
> 100 µM: TGI (DU-145 prostate) | TGI (SK-MEL-28 melanoma) | TGI (OVCAR-5 ovarian) | TGI (SNB-75 CNS)
41.5 µM and 47.3 µM: TGI (ACHN renal)

COc1cc(C2=C(C#Cc3ccccc3)COC2=O)cc(OC)c1OC
8.16 µM: TGI (ACHN renal)
> 57.9 µM: TGI (OVCAR-5 ovarian)
inactive: GI50 (NCI-H522 lung) 3.01 µM | GI50 (ACHN renal) 1.8 µM | GI50 (BT-549 breast) 3.26 µM | GI50 (SK-MEL-5 melanoma) 2.56 µM | GI50 (OVCAR-5 ovarian) 7.89 µM | GI50 (A498 renal) 41.1 µM | GI50 (SNB-75 CNS) 4.98 µM
> 33.7 µM: TGI (NCI-H522 lung)
18 µM: TGI (DU-145 prostate)
> 100 µM: TGI (SK-MEL-28 melanoma) | TGI (A498 renal) | TGI (SNB-75 CNS)
63.1 µM: TGI (BT-549 breast)
active: GI50 (DU-145 prostate) 0.293 µM
20.1 µM: TGI (SK-MEL-5 melanoma)

O=C1C2C3C=CC(C2C(=O)N1COP(=O)(O)O)C1C2C(=O)N(COP(=O)(O)O)C(=O)C2C31 (configuration not stated)
38.6 µM: TGI (SR leukemia)
> 100 µM: TGI (NCI-H522 lung) | TGI (ACHN renal) | TGI (SK-MEL-5 melanoma) | TGI (SK-MEL-28 melanoma) | TGI (OVCAR-5 ovarian) | TGI (A498 renal) | TGI (SNB-75 CNS)

COC(=O)c1c(N)n[nH]c1N
> 100 µM: TGI (NCI-H522 lung) | TGI (SK-MEL-5 melanoma) | TGI (SK-MEL-28 melanoma) | TGI (SR leukemia) | TGI (A498 renal) | TGI (SNB-75 CNS)

O=C(Nc1nc2ncn(CCNCc3ccccc3)c2c(=O)[nH]1)c1ccccc1
> 100 µM: TGI (NCI-H522 lung) | TGI (ACHN renal) | TGI (SK-MEL-5 melanoma) | TGI (SK-MEL-28 melanoma) | TGI (OVCAR-5 ovarian) | TGI (SR leukemia) | TGI (A498 renal) | TGI (SNB-75 CNS)

CN1c2ccccc2C(C)(C)C12C=Cc1cc(O)ccc1O2 (configuration not stated)
6.3 µM: TGI (A498 renal)
9.94 µM: TGI (SK-MEL-5 melanoma)
22.9 µM: TGI (ACHN renal)
25.2 µM: TGI (OVCAR-5 ovarian)
inactive: GI50 (NCI-H522 lung) 3.6 µM | GI50 (DU-145 prostate) 2.56 µM | GI50 (ACHN renal) 7.2 µM | GI50 (SK-MEL-5 melanoma) 2.38 µM | GI50 (SK-MEL-28 melanoma) 3.94 µM | GI50 (OVCAR-5 ovarian) 10.2 µM | GI50 (A498 renal) 2.39 µM | GI50 (SNB-75 CNS) 2.47 µM
24.9 µM: TGI (NCI-H522 lung)
15.5 µM: TGI (SK-MEL-28 melanoma)
8.4 µM: TGI (SNB-75 CNS)
8.17 µM: TGI (DU-145 prostate)

Cc1ccc(S(=O)(=O)OCC23CCC(CC2)C2CC23)cc1 (configuration not stated)
40.6 µM: TGI (SNB-75 CNS)
> 100 µM: TGI (ACHN renal) | TGI (SK-MEL-28 melanoma) | TGI (OVCAR-5 ovarian) | TGI (SR leukemia) | TGI (A498 renal)
75.4 µM: TGI (SK-MEL-5 melanoma)

COC1OC(COCc2ccc(Cl)cc2)C(OCc2ccc(Cl)cc2)C1N=[N+]=[N-] (configuration not stated)
> 100 µM: TGI (NCI-H522 lung) | TGI (ACHN renal) | TGI (SK-MEL-5 melanoma) | TGI (SK-MEL-28 melanoma) | TGI (OVCAR-5 ovarian) | TGI (SR leukemia) | TGI (SNB-75 CNS)

O=[N+]([O-])c1cccc(C2ON2C2CCCCC2)c1 (configuration not stated)
33 µM: TGI (SK-MEL-5 melanoma)
> 100 µM: TGI (SK-MEL-28 melanoma) | TGI (OVCAR-5 ovarian) | TGI (SNB-75 CNS)
90.1 µM: TGI (A498 renal)
32 µM: TGI (ACHN renal)
7.81 µM: TGI (SR leukemia)
33.5 µM: TGI (NCI-H522 lung)

CSc1ccc(NC(=S)NN(C)C)cc1
> 10 µM: TGI (NCI-H522 lung) | TGI (DU-145 prostate) | TGI (ACHN renal) | TGI (SK-MEL-5 melanoma) | TGI (SK-MEL-28 melanoma) | TGI (SR leukemia) | TGI (A498 renal) | TGI (SNB-75 CNS)
